From paper PMC4516653 (European journal of pharmaceutical sciences : official …, 2015)
“And” between values parts separate entries of the source, which are not always exact repeats. Identical values can stand only once. Like-named read-outs stand apart in the source and are kept apart here. Blank lines part the entries; values can stand above or below the molecule they belong to.

Legend:
CYP 2E1 = CYP 2E1 (Homo sapiens, UniProt P05181); experiment: CYP inhibition assay in human liver microsomes; type: in vitro ADME
Sequence of CYP 2E1 (P05181 whole entry): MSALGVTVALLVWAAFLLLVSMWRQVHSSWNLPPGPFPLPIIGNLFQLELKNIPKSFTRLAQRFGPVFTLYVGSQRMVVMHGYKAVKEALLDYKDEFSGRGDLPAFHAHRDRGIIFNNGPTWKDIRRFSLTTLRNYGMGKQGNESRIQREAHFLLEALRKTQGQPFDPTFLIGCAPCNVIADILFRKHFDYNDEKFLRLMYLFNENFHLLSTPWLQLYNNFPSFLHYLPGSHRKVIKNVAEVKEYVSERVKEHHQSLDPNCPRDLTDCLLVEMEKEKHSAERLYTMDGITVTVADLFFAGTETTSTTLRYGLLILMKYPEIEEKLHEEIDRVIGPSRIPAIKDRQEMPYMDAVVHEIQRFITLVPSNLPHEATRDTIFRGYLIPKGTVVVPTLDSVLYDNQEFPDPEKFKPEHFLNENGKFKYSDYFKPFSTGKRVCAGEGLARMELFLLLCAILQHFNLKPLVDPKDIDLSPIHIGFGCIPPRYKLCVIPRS

CYP 2C8 = target: T1, CYP 2C8 (Homo sapiens, UniProt P10632); experiment: CYP inhibition assay in human liver microsomes; type: in vitro ADME
T1 sequence (P10632 1-490): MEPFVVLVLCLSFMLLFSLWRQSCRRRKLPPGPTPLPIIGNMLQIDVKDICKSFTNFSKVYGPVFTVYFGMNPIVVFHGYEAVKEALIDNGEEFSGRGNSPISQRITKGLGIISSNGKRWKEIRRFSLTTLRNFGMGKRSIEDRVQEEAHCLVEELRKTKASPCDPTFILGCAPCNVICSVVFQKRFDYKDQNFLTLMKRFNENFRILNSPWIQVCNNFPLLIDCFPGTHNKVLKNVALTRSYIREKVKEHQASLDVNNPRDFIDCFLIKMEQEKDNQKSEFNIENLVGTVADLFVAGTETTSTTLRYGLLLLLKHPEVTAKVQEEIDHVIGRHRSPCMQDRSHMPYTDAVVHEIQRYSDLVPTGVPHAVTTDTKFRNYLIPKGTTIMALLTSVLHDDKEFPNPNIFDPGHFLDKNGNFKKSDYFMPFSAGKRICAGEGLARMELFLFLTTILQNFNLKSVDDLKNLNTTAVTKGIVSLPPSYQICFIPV

CYP 2B6 = target: T2, CYP 2B6 (Homo sapiens, UniProt P20813); experiment: CYP inhibition assay in human liver microsomes; type: in vitro ADME; conditions: IC50 CYP 2B6, human liver microsomes; duplicate incubations, both values printed
T2 sequence (P20813 1-491): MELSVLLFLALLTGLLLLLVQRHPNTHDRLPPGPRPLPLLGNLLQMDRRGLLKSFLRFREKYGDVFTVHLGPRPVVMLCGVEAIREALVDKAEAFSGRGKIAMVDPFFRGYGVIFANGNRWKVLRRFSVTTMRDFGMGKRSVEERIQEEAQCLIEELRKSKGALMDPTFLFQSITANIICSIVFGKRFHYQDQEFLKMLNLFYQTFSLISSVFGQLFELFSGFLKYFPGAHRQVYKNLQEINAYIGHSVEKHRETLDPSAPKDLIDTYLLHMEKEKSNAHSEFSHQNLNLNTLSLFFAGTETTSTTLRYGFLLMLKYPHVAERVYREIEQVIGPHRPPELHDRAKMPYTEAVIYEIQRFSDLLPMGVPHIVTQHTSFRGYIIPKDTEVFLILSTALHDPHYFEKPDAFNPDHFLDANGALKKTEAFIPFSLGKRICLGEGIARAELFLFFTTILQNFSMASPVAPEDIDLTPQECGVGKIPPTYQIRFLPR

CYP 2C9 = CYP 2C9 (Homo sapiens, UniProt P11712); experiment: CYP inhibition assay in human liver microsomes; type: in vitro ADME
Sequence of CYP 2C9 (P11712 whole entry): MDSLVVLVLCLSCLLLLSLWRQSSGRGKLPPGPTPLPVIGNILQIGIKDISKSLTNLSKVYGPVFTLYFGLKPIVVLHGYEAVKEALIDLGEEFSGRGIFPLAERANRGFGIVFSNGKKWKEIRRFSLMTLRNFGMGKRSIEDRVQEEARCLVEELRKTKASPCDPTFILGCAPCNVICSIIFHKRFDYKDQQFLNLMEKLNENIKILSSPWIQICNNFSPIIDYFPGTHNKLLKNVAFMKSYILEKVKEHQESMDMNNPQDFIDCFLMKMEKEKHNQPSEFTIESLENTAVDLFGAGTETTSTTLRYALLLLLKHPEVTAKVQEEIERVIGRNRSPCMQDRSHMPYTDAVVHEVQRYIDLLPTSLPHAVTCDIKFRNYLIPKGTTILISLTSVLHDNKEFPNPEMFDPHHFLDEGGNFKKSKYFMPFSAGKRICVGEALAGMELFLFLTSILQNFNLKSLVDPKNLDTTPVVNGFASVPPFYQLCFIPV

CYP3A4 = CYP3A4 (Homo sapiens, UniProt P08684); experiment: CYP inhibition assay in human liver microsomes; type: in vitro ADME; conditions: mean value given in text, HLM
Sequence of CYP3A4 (P08684 2-503 limits assumed): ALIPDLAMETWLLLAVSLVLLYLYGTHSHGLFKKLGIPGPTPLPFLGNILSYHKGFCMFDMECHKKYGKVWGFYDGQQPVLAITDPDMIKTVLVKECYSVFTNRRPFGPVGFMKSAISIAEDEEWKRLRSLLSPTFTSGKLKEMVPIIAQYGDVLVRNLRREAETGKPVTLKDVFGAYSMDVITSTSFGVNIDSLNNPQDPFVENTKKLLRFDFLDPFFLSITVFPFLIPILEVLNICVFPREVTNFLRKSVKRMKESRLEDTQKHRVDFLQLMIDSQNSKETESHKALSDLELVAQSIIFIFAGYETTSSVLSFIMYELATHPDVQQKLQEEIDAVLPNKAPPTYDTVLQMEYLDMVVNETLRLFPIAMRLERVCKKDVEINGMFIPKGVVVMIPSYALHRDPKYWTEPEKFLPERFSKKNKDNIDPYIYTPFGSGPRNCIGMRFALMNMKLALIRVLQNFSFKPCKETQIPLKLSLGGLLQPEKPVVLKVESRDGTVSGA

CYP 2D6 = CYP 2D6 (Homo sapiens, UniProt P10635); experiment: CYP inhibition assay in human liver microsomes; type: in vitro ADME
Sequence of CYP 2D6 (P10635 whole entry): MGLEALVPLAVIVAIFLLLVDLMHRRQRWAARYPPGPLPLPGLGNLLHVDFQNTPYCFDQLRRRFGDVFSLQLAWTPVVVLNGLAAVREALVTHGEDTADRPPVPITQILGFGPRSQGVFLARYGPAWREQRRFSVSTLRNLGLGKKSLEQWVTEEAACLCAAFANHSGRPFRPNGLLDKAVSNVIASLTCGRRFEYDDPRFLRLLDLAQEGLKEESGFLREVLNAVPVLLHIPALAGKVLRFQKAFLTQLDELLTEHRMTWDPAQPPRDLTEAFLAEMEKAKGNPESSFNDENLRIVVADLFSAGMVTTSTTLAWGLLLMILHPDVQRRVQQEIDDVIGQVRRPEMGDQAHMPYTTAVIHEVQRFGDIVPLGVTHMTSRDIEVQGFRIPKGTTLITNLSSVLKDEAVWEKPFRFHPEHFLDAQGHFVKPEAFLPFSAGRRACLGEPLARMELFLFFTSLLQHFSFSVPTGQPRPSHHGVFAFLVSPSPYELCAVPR

CYP 1A2 = target: T3, CYP 1A2 (Homo sapiens, UniProt P05177); experiment: CYP inhibition assay in human liver microsomes; type: in vitro ADME
T3 sequence (P05177 1-516): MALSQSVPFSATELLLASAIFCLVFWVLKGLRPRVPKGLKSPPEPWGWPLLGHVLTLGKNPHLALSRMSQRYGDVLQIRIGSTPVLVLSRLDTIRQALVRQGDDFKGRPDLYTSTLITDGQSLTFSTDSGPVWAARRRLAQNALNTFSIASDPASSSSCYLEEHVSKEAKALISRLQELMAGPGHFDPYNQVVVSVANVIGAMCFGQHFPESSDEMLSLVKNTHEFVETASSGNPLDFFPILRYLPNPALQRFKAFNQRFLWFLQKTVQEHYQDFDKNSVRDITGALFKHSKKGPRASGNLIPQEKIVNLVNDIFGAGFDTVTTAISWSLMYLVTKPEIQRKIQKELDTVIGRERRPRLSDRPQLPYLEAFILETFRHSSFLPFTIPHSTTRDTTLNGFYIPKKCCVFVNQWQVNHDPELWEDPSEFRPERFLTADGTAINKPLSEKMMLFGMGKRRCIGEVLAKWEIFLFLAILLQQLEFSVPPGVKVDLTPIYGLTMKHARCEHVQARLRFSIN

CYP 2A6 = target: T4, CYP 2A6 (Homo sapiens, UniProt P11509); experiment: CYP inhibition assay in human liver microsomes; type: in vitro ADME
T4 sequence (P11509 1-494): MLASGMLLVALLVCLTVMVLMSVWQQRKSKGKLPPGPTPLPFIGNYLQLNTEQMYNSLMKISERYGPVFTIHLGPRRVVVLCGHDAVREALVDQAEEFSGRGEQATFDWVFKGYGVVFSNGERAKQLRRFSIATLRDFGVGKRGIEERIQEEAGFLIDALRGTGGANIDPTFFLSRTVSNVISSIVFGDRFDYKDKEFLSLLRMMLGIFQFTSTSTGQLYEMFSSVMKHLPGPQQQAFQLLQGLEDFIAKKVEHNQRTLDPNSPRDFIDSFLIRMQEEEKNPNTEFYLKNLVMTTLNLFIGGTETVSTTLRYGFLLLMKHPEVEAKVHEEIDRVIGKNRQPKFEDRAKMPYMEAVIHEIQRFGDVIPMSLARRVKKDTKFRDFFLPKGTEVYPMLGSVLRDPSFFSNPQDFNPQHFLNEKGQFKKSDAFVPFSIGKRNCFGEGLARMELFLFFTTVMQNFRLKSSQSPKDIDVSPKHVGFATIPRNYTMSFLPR

[1] = Single-dose oral PK screening of Nos with dietary ingredients; type: in vivo, male CD-1 mice
[2] = cited from earlier work
[3] = Clinical chemistry parameters after 7 days oral dosing; type: in vivo, mice; conditions: hepatic and renal serum markers
[4] = Microsomal stability assay of Nos; type: in vitro ADME, Beagle dog; conditions: Noscapine 10 μM alone; n=2
[5] = Microsomal stability assay of Nos; type: in vitro ADME, Sprague-Dawley rat; conditions: Noscapine 10 μM alone; n=2
Repeated-dose = type: in vivo, male CD-1 mice; conditions: for AUC(0-t): AUClast
[6] = Microsomal stability assay of Nos; type: in vitro ADME, CD-1 mouse; conditions: Noscapine 10 μM alone; n=2
[7] = Microsomal stability assay of Nos; type: in vitro ADME, human; conditions: Noscapine 10 μM alone; n=2
UGT = experiment: In vitro UGT inhibition in mouse liver; conditions: UGT inhibition experiments, MLM and MIM, Figure 7
[8] = IC50 CYP 2C8, human liver microsomes, duplicate incubations, both values printed
[9] = IC50 CYP 2C9, human liver microsomes, duplicate incubations, both values printed
[10] = IC50 CYP 1A2, human liver microsomes, duplicate incubations, both values printed
[11] = male, CD-1, mouse, plasma, po, 50 mg/kg

- IC50 (CYP 2E1): > 100 µM
- IC50 (CYP 2C8; [8]): 6.3 µM and 5.9 µM
- IC50 (CYP 2C8; mean IC50 CYP2C8, mean value given in text, HLM): 6.1 µM
- IC50 (CYP 2B6): 26 µM and 24 µM
- IC50 (CYP 2C9): 3.7 µM
- IC50 (CYP 2C9; [9]): 4.5 µM
- IC50 (CYP 2C9; mean IC50 CYP2C9, mean value given in text, HLM): 4.1 µM
- IC50 (CYP3A4; mean IC50 CYP3A4, midazolam as substrate): 16 µM
- IC50 (CYP3A4; mean IC50 CYP3A4, testosterone as substrate): 9.7 µM
- IC50 (CYP 2D6): 68 µM
- IC50 (CYP 1A2; [10]): 3.1 µM and 3.5 µM
- IC50 (CYP 1A2; mean IC50 CYP1A2, mean value given in text, HLM): 3.3 µM
- IC50 (CYP 2A6): > 100 µM
Compound: COc1cc(CNC(=O)CCCC/C=C/C(C)C)ccc1O [Cap, capsaicin]

Compound: C=CCc1ccc(O)c(OC)c1 [Eu, eugenol]
- Tmax of Nos ([1]; Nos alone or co-dosed with the named dietary agent, single oral dose): remained unaffected

- IC50 (CYP 2E1): > 100 µM
- IC50 (CYP 2C8; [8]): 10 µM and 8.4 µM
- clinical chemistry parameters vs vehicle-treated mice [3]: did not affect
- IC50 (CYP 2B6): > 100 µM
- IC50 (CYP 2C9; [9]): 18 µM and 24 µM
- IC50 (CYP 2D6): > 100 µM
- Intrinsic Clearance DLM [4]: 1.9 mL/min/g liver
- Intrinsic Clearance RLM [5]: 4.0 mL/min/g liver
- AUC(0-t) [1, 11]: 1920 ng·h/mL
- Tmax [1, 11]: 4.8 min
- half-life [1, 11]: < 60 min
- AUClast (Repeated-dose; Day 1, noscapine, oral gavage Nos 50 mg/kg bw, Cap/Pip 5 mg/kg bw, CD-1 mice): 1023.76 ng·h/mL
- Cmax (Repeated-dose; Day 1, noscapine, oral gavage Nos 50 mg/kg bw, Cap/Pip 5 mg/kg bw, CD-1 mice, mean ± SD): 3087.37 ± 1232.27 ng/mL
- AUClast (Repeated-dose; Day 7, noscapine, daily oral gavage Nos 50 mg/kg bw, Cap/Pip 5 mg/kg bw, CD-1 mice): 507.74 ng·h/mL
- Cmax (Repeated-dose; Day 7, noscapine, daily oral gavage Nos 50 mg/kg bw, Cap/Pip 5 mg/kg bw, CD-1 mice, mean ± SD): 684.04 ± 31.77 ng/mL
- Tmax at 1 day (Repeated-dose; [11]): 10.2 min
- Tmax at 7 days (Repeated-dose; [11]): 15 min
- AUC(0-t) (Repeated-dose; male, CD-1, mouse, plasma, po, 50 mg/kg, Day 1, noscapine, oral gavage Nos 50 mg/kg bw, Cap/Pip 5 mg/kg bw, CD-1 mice): 1020 ng·h/mL
- AUC(0-t) (Repeated-dose; male, CD-1, mouse, plasma, po, 50 mg/kg, Day 7, noscapine, daily oral gavage Nos 50 mg/kg bw, Cap/Pip 5 mg/kg bw, CD-1 mice): 508 ng·h/mL
- Cmax at 1 day (Repeated-dose; male, CD-1, mouse, plasma, po, 50 mg/kg, Cmax, Day 1, noscapine, oral gavage Nos 50 mg/kg bw, Cap/Pip 5 mg/kg bw, CD-1 mice, mean ± SD): 3090 ng/mL
- Cmax at 7 days (Repeated-dose; male, CD-1, mouse, plasma, po, 50 mg/kg, Cmax, Day 7, noscapine, daily oral gavage Nos 50 mg/kg bw, Cap/Pip 5 mg/kg bw, CD-1 mice, mean ± SD): 684 ng/mL
- decrease in exposure of Nos on day 7 compared to day 1 (Repeated-dose; repeated oral dosing for seven days): half
- IC50 (CYP 1A2; [10]): > 100 µM
- Intrinsic Clearance MLM [6]: 6.4 mL/min/g liver
- Intrinsic Clearance HLM [7]: 1.8 mL/min/g liver
- IC50 (CYP 2A6): > 100 µM
Compound: COc1ccc2c(c1OC)C(=O)O[C@@H]2[C@H]1c2c(cc3c(c2OC)OCO3)CCN1C [Nos, Noscapine]
- bioavailability ([2]; mice, ref Aneja et al., 2007): around 32%
- Oral bioavailability ([2]; mouse, reported, no reference given): 30%
- half-life ([2]; ref Aneja et al., 2007): < 120 min

- IC50 (CYP 2E1): > 100 µM
- IC50 (CYP 2C8; [8]): 84 µM and 78 µM
- IC50 (CYP 2B6): 87 µM and 90 µM
- IC50 (CYP 2C9): 54 µM
- IC50 (CYP 2D6): > 100 µM
- IC50 (CYP 1A2; [10]): 35 µM and 38 µM
- IC50 (CYP 2A6): > 100 µM
Compound: O=C(/C=C/C=C/c1ccc2c(c1)OCO2)N1CCCCC1 [Pip, piperine]
- inhibitory effect on the rate of metabolism of Nos (UGT): did not reveal significant inhibitory effects
